Experimental data published in PubChem BioAssay AID272 (DTP/NCI, 2004).
Where “and” joins values, the source holds several entries; their conditions need not be identical. Identical values can stand only once. Inconclusive results are not listed.

Tested on: Lewis lung carcinoma i.m., BDF1 mice, T/C %
Test: NCI In Vivo Anticancer Drug Screen. Data for tumor model Lewis Lung Carcinoma (intramuscular) in B6D2F1 (BDF1) mice
Summary of the method: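 Value is the ratio of a treated-group measurement (T) to the matching vehicle-control measurement (C), using either survival or tumour size in mice bearing transplanted tumours.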

`Oc1ccc(I)c2cccnc12` was tested, and the T/C (endpoint: mean tumor weight (est.), dose: 100.0 mg/kg/injection, schedule: Q01DX011 (ip), vehicle: saline, higher = larger tumour) was 109 % of control and the T/C (endpoint: median survival time, dose: 100.0 mg/kg/injection, schedule: Q01DX011 (ip), vehicle: saline, higher = longer survival) was 95 % of control.
In the case of `COc1c2c([n+](C)c3c(OC)cccc13)OC(C(C)C)C2` (stereo not given), the T/C (endpoint: mean tumor weight (est.), dose: 0.25 mg/kg/injection, schedule: Q01DX011 (ip), vehicle: saline, higher = larger tumour) was 85 % of control, the T/C (endpoint: mean tumor weight (est.), dose: 0.5 mg/kg/injection, schedule: Q01DX011 (ip), vehicle: saline, higher = larger tumour) was 82 % of control and the T/C (endpoint: median survival time, dose: 0.25 mg/kg/injection, schedule: Q01DX011 (ip), vehicle: saline, higher = longer survival) was 90 % of control. For the same compound, the T/C (endpoint: median survival time, dose: 0.5 mg/kg/injection, schedule: Q01DX011 (ip), vehicle: saline, higher = longer survival) was 101 % of control.
In the case of `CC1CCC(NC(=O)N(CCCl)N=O)CC1` (stereo not given), the T/C (endpoint: mean tumor weight, dose: 3.12 mg/kg/injection, schedule: Q01DX011 (ip), vehicle: saline, higher = larger tumour) was 83 % of control, the T/C (endpoint: mean tumor weight, dose: 3.12 mg/kg/injection, schedule: Q06HX008 (ip), vehicle: saline, higher = larger tumour) was 80 % of control and the T/C (endpoint: mean tumor weight, dose: 6.25 mg/kg/injection, schedule: Q01DX011 (ip), vehicle: saline, higher = larger tumour) was 63 % of control. The T/C (endpoint: mean tumor weight, dose: 6.25 mg/kg/injection, schedule: Q06HX004 (ip), vehicle: saline, higher = larger tumour) was 41 % of control, the T/C (endpoint: mean tumor weight, dose: 6.25 mg/kg/injection, schedule: Q06HX008 (ip), vehicle: saline, higher = larger tumour) was 93 % of control and the T/C (endpoint: mean tumor weight, dose: 8.4 mg/kg/injection, schedule: Q01DX001 (sc), vehicle: Klucel (hydroxypropylcellulose) (HPC), higher = larger tumour) was 111 % of control. The T/C (endpoint: mean tumor weight, dose: 12.5 mg/kg/injection, schedule: Q01DX001 (ip), vehicle: saline, higher = larger tumour) was 76 % of control, the T/C (endpoint: mean tumor weight, dose: 12.5 mg/kg/injection, schedule: Q06HX008 (ip), vehicle: saline, higher = larger tumour) was 11 % of control and the T/C (endpoint: mean tumor weight, dose: 12.5 mg/kg/injection, schedule: Q08DX002 (ip), vehicle: saline, higher = larger tumour) was 99 % of control. The T/C (endpoint: mean tumor weight, dose: 14.0 mg/kg/injection, schedule: Q01DX001 (sc), vehicle: Klucel (hydroxypropylcellulose) (HPC), higher = larger tumour) was 56 % of control, the T/C (endpoint: mean tumor weight, dose: 23.0 mg/kg/injection, schedule: Q01DX001 (sc), vehicle: Klucel (hydroxypropylcellulose) (HPC), higher = larger tumour) was 35 % of control and the T/C (endpoint: mean tumor weight, dose: 25.0 mg/kg/injection, schedule: Q01DX001 (ip), vehicle: saline, higher = larger tumour) was 38 % of control. The T/C (endpoint: mean tumor weight, dose: 25.0 mg/kg/injection, schedule: Q08DX002 (ip), vehicle: saline, higher = larger tumour) was 30 % of control, the T/C (endpoint: mean tumor weight, dose: 39.0 mg/kg/injection, schedule: Q01DX001 (sc), vehicle: Klucel (hydroxypropylcellulose) (HPC), higher = larger tumour) was 21 % of control and the T/C (endpoint: mean tumor weight, dose: 50.0 mg/kg/injection, schedule: Q01DX001 (ip), vehicle: saline, higher = larger tumour) was 12 % of control. The T/C (endpoint: mean tumor weight, dose: 50.0 mg/kg/injection, schedule: Q08DX002 (ip), vehicle: saline, higher = larger tumour) was 8 % of control, the T/C (endpoint: median survival time, dose: 1.0 mg/kg/injection, schedule: Q01DX009 (ip), vehicle: saline + alcohol, higher = longer survival) was 112 % of control and the T/C (endpoint: median survival time, dose: 2.5 mg/kg/injection, schedule: Q01DX015 (ip), vehicle: saline, higher = longer survival) was 111 % of control. The T/C (endpoint: median survival time, dose: 3.12 mg/kg/injection, schedule: Q01DX017 (ip), vehicle: saline, higher = longer survival) was 100 % of control, the T/C (endpoint: median survival time, dose: 3.12 mg/kg/injection, schedule: Q06HX012 (ip), vehicle: saline, higher = longer survival) was 97 % of control and the T/C (endpoint: median survival time, dose: 4.0 mg/kg/injection, schedule: Q01DX009 (ip), vehicle: saline + alcohol, higher = longer survival) was 104 % of control and 118 % of control. For the same compound, the T/C (endpoint: median survival time, dose: 4.0 mg/kg/injection, schedule: Q01DX011 (ip), vehicle: saline with Tween-80, higher = longer survival) was 100 % of control and 114 % of control, the T/C (endpoint: median survival time, dose: 5.0 mg/kg/injection, schedule: Q01DX015 (ip), vehicle: saline, higher = longer survival) was 97 % of control and 107 % of control and the T/C (endpoint: median survival time, dose: 6.25 mg/kg/injection, schedule: Q06HX004 (ip), vehicle: saline, higher = longer survival) was 106 % of control. For the same compound, the T/C (endpoint: median survival time, dose: 6.3 mg/kg/injection, schedule: Q01DX015 (ip), vehicle: saline, higher = longer survival) was 95 % of control, the T/C (endpoint: median survival time, dose: 7.5 mg/kg/injection, schedule: Q07DX003 (ip), vehicle: saline, higher = longer survival) was 90 % of control and the T/C (endpoint: median survival time, dose: 7.9 mg/kg/injection, schedule: Q01DX015 (ip), vehicle: saline, higher = longer survival) was 90 % of control. For the same compound, the T/C (endpoint: median survival time, dose: 8.0 mg/kg/injection, schedule: Q01DX009 (ip), vehicle: saline + alcohol, higher = longer survival) was 156 % of control, the T/C (endpoint: median survival time, dose: 8.4 mg/kg/injection, schedule: Q01DX001 (sc), vehicle: Klucel (hydroxypropylcellulose) (HPC), higher = longer survival) was 114 % of control and the T/C (endpoint: median survival time, dose: 10.0 mg/kg/injection, schedule: Q01DX001 (ip), vehicle: saline + alcohol, higher = longer survival) was 116 % of control. For the same compound, the T/C (endpoint: median survival time, dose: 12.5 mg/kg/injection, schedule: Q01DX001 (ip), vehicle: saline, higher = longer survival) was 104 % of control, the T/C (endpoint: median survival time, dose: 12.5 mg/kg/injection, schedule: Q06HX004 (ip), vehicle: saline, higher = longer survival) was 158 % of control and the T/C (endpoint: median survival time, dose: 12.5 mg/kg/injection, schedule: Q06HX012 (ip), vehicle: saline, higher = longer survival) was 93 % of control. The T/C (endpoint: median survival time, dose: 12.5 mg/kg/injection, schedule: Q08DX003 (ip), vehicle: saline, higher = longer survival) was 108 % of control, the T/C (endpoint: median survival time, dose: 14.0 mg/kg/injection, schedule: Q01DX001 (sc), vehicle: Klucel (hydroxypropylcellulose) (HPC), higher = longer survival) was 158 % of control and the T/C (endpoint: median survival time, dose: 14.0 mg/kg/injection, schedule: Q07DX003 (ip), vehicle: saline, higher = longer survival) was 104 % of control. The T/C (endpoint: median survival time, dose: 15.0 mg/kg/injection, schedule: Q07DX003 (ip), vehicle: saline, higher = longer survival) was 90 % of control, the T/C (endpoint: median survival time, dose: 20.0 mg/kg/injection, schedule: Q01DX001 (ip), vehicle: saline + alcohol, higher = longer survival) was 92 % of control and the T/C (endpoint: median survival time, dose: 23.0 mg/kg/injection, schedule: Q01DX001 (sc), vehicle: Klucel (hydroxypropylcellulose) (HPC), higher = longer survival) was 177 % of control. The T/C (endpoint: median survival time, dose: 23.0 mg/kg/injection, schedule: Q07DX003 (ip), vehicle: saline, higher = longer survival) was 112 % of control, the T/C (endpoint: median survival time, dose: 24.0 mg/kg/injection, schedule: Q01DX001 (ip), vehicle: saline, higher = longer survival) was 102 % of control and the T/C (endpoint: median survival time, dose: 24.0 mg/kg/injection, schedule: Q07DX003 (ip), vehicle: saline, higher = longer survival) was 175 % of control. The T/C (endpoint: median survival time, dose: 25.0 mg/kg/injection, schedule: Q01DX001 (ip), vehicle: saline, higher = longer survival) was 122 % of control, the T/C (endpoint: median survival time, dose: 25.0 mg/kg/injection, schedule: Q08DX003 (ip), vehicle: saline, higher = longer survival) was 91 % of control and the T/C (endpoint: median survival time, dose: 30.0 mg/kg/injection, schedule: Q01DX001 (ip), vehicle: saline + alcohol, higher = longer survival) was 92 % of control. The T/C (endpoint: median survival time, dose: 30.0 mg/kg/injection, schedule: Q01DX001 (ip), vehicle: saline, higher = longer survival) was 197 % of control, the T/C (endpoint: median survival time, dose: 30.0 mg/kg/injection, schedule: Q07DX003 (ip), vehicle: saline, higher = longer survival) was 197 % of control and 204 % of control and the T/C (endpoint: median survival time, dose: 30.0 mg/kg/injection, schedule: Q14DX002 (ip), vehicle: saline, higher = longer survival) was 187 % of control. The T/C (endpoint: median survival time, dose: 39.0 mg/kg/injection, schedule: Q07DX003 (ip), vehicle: saline, higher = longer survival) was 151 % of control, the T/C (endpoint: median survival time, dose: 45.0 mg/kg/injection, schedule: Q01DX001 (ip), vehicle: saline, higher = longer survival) was 151 % of control and the T/C (endpoint: median survival time, dose: 45.0 mg/kg/injection, schedule: Q07DX003 (ip), vehicle: saline, higher = longer survival) was 117 % of control. The T/C (endpoint: median survival time, dose: 45.0 mg/kg/injection, schedule: Q14DX002 (ip), vehicle: saline, higher = longer survival) was 117 % of control, the T/C (endpoint: median survival time, dose: 50.0 mg/kg/injection, schedule: Q01DX001 (ip), vehicle: saline, higher = longer survival) was 181 % of control and the T/C (endpoint: median survival time, dose: 56.0 mg/kg/injection, schedule: Q07DX003 (ip), vehicle: saline, higher = longer survival) was 100 % of control.
